In patent US10597388B2, “Pyridazinone herbicides” (FMC CORPORATION, priority 2014, dated 2020):

How the values were obtained:
Format in all cases: in vivo
[1] = test system: oat, wild (wild oat, Avena fatua); experiment: Test C greenhouse herbicide test, postemergence
Method in brief: (§1)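 Postemergence foliar treatment, 1- to 4-leaf stage (2–18 cm), peat/vermiculite medium; greenhouse 13–15 d; visual rating vs controls, 0 = no effect, 100 = complete control; dash = no result.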

[2] = test system: chickweed (common chickweed, Stellaria media); experiment: Test C greenhouse herbicide test, postemergence
Method in brief: as §1

kochia (Kochia scoparia) = experiment: Test C greenhouse herbicide test, postemergence
Method in brief: as §1

[3] = test system: blackgrass (Alopecurus myosuroides); experiment: Test A greenhouse herbicide test, postemergence; conditions: for Plant response rating, Blackgrass: 125 g ai/ha; for Blackgrass plant response rating: 500 g ai/ha, 0 to 100 scale, 0 is no effect, 100 is complete control
Method in brief: (§2)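 Visual injury score, 0 (no effect) to 100 (complete control), versus untreated controls roughly 10 d after postemergence spray; plants at one- to two-leaf stage, 2 to 10 cm tall, in loam soil and sand, kept in greenhouse.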

[4] = test system: galium (catchweed bedstraw, Galium aparine); experiment: Test A greenhouse herbicide test, postemergence; conditions: for Plant response rating, Galium: 125 g ai/ha; for Galium plant response rating: 500 g ai/ha, 0 to 100 scale, 0 is no effect, 100 is complete control
Method in brief: as §2

[5] = test system: barnyardgrass (Echinochloa crus-galli); experiment: Test A greenhouse herbicide test, pre- and postemergence
Method in brief: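 Seeds in loam–sand blend received a preemergence directed soil spray; plants at 2–10 cm, one- to two-leaf stage, received postemergence sprays. Compounds in a non-phytotoxic solvent with surfactant. After about 10 d in a greenhouse, injury rated visually versus untreated controls on a 0–100 scale (100 = complete control).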

rice (Oryza sativa) = experiment: Test B flooded paddy test; conditions: 250 g ai/ha, Flood; visual rating on scale of 0 to 100 where 0 is no effect and 100 is complete control; 13 to 15 d after treatment
Method in brief: (§3)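 Plants grown to the 2-leaf stage. At treatment, pots were flooded to 3 cm above the soil, compound was applied directly to the paddy water, and that depth was held throughout. After 13 to 15 d in the greenhouse, response was rated visually against controls on a 0 (no effect) to 100 (complete control) scale.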

[6] = test system: ducksalad (Heteranthera limosa); experiment: Test B flooded paddy test; conditions: 250 g ai/ha, Flood; visual rating on scale of 0 to 100 where 0 is no effect and 100 is complete control; 13 to 15 d after treatment
Method in brief: as §3

[7] = test system: barnyardgrass (Echinochloa crus-galli); experiment: Test B flooded paddy test; conditions: 250 g ai/ha, Flood; visual rating on scale of 0 to 100 where 0 is no effect and 100 is complete control; 13 to 15 d after treatment
Method in brief: as §3

[8] = test system: sedge, umbrella (small-flower umbrella sedge, Cyperus difformis); experiment: Test B flooded paddy test; conditions: 250 g ai/ha, Flood; visual rating on scale of 0 to 100 where 0 is no effect and 100 is complete control; 13 to 15 d after treatment
Method in brief: as §3

[9] = test system: waterhemp_RES1 (ALS & Triazine resistant common waterhemp, Amaranthus rudis); experiment: Test E greenhouse herbicide test, postemergence
Method in brief: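 Postemergence spray on potted plants, 1–4 leaves, 2–18 cm; greenhouse 14–21 d; visual rating vs controls, 0 (no effect) to 100 (complete control).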

[10] = Postemergence, 31 g ai/ha, 0 to 100 scale (0 no effect, 100 complete control)
[11] = Postemergence, 125 g ai/ha, scale 0 to 100, 0 is no effect, 100 is complete control
[12] = Postemergence, 250 g ai/ha, scale 0 to 100, 0 no effect, 100 complete control, 13 to 15 d
[13] = postemergence, 62 g ai/ha, scale 0 to 100, 0 no effect, 100 complete control
[14] = 0 to 100 scale where 0 is no effect and 100 is complete control
[15] = Postemergence, 125 g ai/ha, 0 to 100 scale where 0 is no effect and 100 is complete control
[16] = Postemergence, 500 g ai/ha, 0 to 100 scale, 0 is no effect, 100 is complete control
[17] = Preemergence, 125 g ai/ha, 0 to 100 scale where 0 is no effect and 100 is complete control
[18] = Preemergence, 500 g ai/ha, 0 to 100 scale, 0 no effect, 100 complete control
[19] = 31 g ai/ha, visual, scale 0 no effect to 100 complete control
[20] = 62 g ai/ha, scale 0 to 100 (0 no effect, 100 complete control)
[21] = 125 g ai/ha, scale 0 to 100 (0 no effect, 100 complete control)
[22] = 250 g ai/ha, scale 0 to 100 (0 no effect, 100 complete control)
[23] = visual rating after approx. 10 d, 0 to 100 scale (0 no effect, 100 complete control)

## Cc1ccc2ccccc2c1-c1c(OC(=O)OC(C)C)c(C)nn(C)c1=O [Compound 72]
[1]; [10]
  Oat, Wild plant response rating: 85
[1]; [11]
  Plant response rating, Oat, Wild: 90
[1]; [12]
  Plant response rating, Oat, Wild: 95
[1]; [13]
  Oat, Wild plant response rating: 95
[2]; [10]
  Chickweed plant response rating: 90
[2]; [11]
  Plant response rating, Chickweed: 90
[2]; [12]
  Plant response rating, Chickweed: 90
[2]; [13]
  Chickweed plant response rating: 90
Kochia (Kochia scoparia); [10]
  Kochia plant response rating: 60
Kochia (Kochia scoparia); [11]
  Plant response rating, Kochia: 90
Kochia (Kochia scoparia); [12]
  Plant response rating, Kochia: 90
Kochia (Kochia scoparia); [13]
  Kochia plant response rating: 85
[3]; [14]
  Plant response rating, Blackgrass: 70
[3]
  Blackgrass plant response rating: 90
[4]; [14]
  Plant response rating, Galium: 90
[4]
  Galium plant response rating: 100
[5]; [15]
  Plant response rating, Barnyardgrass: 20
[5]; [16]
  Barnyardgrass plant response rating: 60
[5]; [17]
  Barnyardgrass plant response rating: 10
[5]; [18]
  Plant response rating, Barnyardgrass: 100
Rice (Oryza sativa)
  Plant response rating, Rice: 0
[6]
  Plant response rating, Ducksalad: 0
[7]
  Plant response rating, Barnyardgrass: 0
[8]
  Plant response rating, Sedge, Umbrella: 0
[9]; [19]
  Plant response rating, Waterhemp_RES1: 60
[9]; [20]
  Plant response rating, Waterhemp_RES1: 80
[9]; [21]
  Plant response rating, Waterhemp_RES1: 80
[9]; [22]
  Plant response rating, Waterhemp_RES1: 90

## Cc1cc2ccccc2c(-c2c(O)c(C)nn(C)c2=O)c1C [Compound 34]
[1]; [10]
  Oat, Wild plant response rating: 80
[1]; [11]
  Plant response rating, Oat, Wild: 90
[1]; [12]
  Plant response rating, Oat, Wild: 90
[1]; [13]
  Oat, Wild plant response rating: 85
[2]; [10]
  Chickweed plant response rating: 90
[2]; [11]
  Plant response rating, Chickweed: 90
[2]; [12]
  Plant response rating, Chickweed: 95
[2]; [13]
  Chickweed plant response rating: 90
Kochia (Kochia scoparia); [10]
  Kochia plant response rating: 10
Kochia (Kochia scoparia); [11]
  Plant response rating, Kochia: 60
Kochia (Kochia scoparia); [12]
  Plant response rating, Kochia: 85
Kochia (Kochia scoparia); [13]
  Kochia plant response rating: 45
[3]; [23]
  Plant response rating, Blackgrass: 80
[3]
  Blackgrass plant response rating: 90
[4]; [23]
  Plant response rating, Galium: 90
[4]
  Galium plant response rating: 100
[5]; Postemergence, 125 g ai/ha, visual rating after approx. 10 d, 0 to 100 scale (0 no effect, 100 complete control)
  Plant response rating, Barnyardgrass: 30
[5]; [16]
  Barnyardgrass plant response rating: 90
[5]; [17]
  Barnyardgrass plant response rating: 20
[5]; [18]
  Plant response rating, Barnyardgrass: 80
Rice (Oryza sativa)
  Plant response rating, Rice: 0
[6]
  Plant response rating, Ducksalad: 0
[7]
  Plant response rating, Barnyardgrass: 0
[8]
  Plant response rating, Sedge, Umbrella: 0
[9]; [19]
  Plant response rating, Waterhemp_RES1: 90
[9]; [20]
  Plant response rating, Waterhemp_RES1: 90
[9]; [21]
  Plant response rating, Waterhemp_RES1: 90
[9]; [22]
  Plant response rating, Waterhemp_RES1: 95

## CCc1sc2ccc(C)cc2c1-c1c(O)c(C)nn(C)c1=O [Compound 47]
[1]; [10]
  Oat, Wild plant response rating: 5
[1]; [11]
  Plant response rating, Oat, Wild: 30
[1]; [12]
  Plant response rating, Oat, Wild: 50
[1]; [13]
  Oat, Wild plant response rating: 10
[2]; [10]
  Chickweed plant response rating: 90
[2]; [11]
  Plant response rating, Chickweed: 98
[2]; [12]
  Plant response rating, Chickweed: 98
[2]; [13]
  Chickweed plant response rating: 90
Kochia (Kochia scoparia); [10]
  Kochia plant response rating: 75
Kochia (Kochia scoparia); [11]
  Plant response rating, Kochia: 95
Kochia (Kochia scoparia); [12]
  Plant response rating, Kochia: 98
Kochia (Kochia scoparia); [13]
  Kochia plant response rating: 90
[3]; [14]
  Plant response rating, Blackgrass: 60
[3]
  Blackgrass plant response rating: 70
[4]; [14]
  Plant response rating, Galium: 90
[4]
  Galium plant response rating: 100
[5]; [15]
  Plant response rating, Barnyardgrass: 40
[5]; [16]
  Barnyardgrass plant response rating: 80
[5]; [17]
  Barnyardgrass plant response rating: 70
[5]; [18]
  Plant response rating, Barnyardgrass: 90
Rice (Oryza sativa)
  Plant response rating, Rice: 0
[6]
  Plant response rating, Ducksalad: 0
[7]
  Plant response rating, Barnyardgrass: 0
[8]
  Plant response rating, Sedge, Umbrella: 0
[9]; [19]
  Plant response rating, Waterhemp_RES1: 60
[9]; [20]
  Plant response rating, Waterhemp_RES1: 70
[9]; [21]
  Plant response rating, Waterhemp_RES1: 80
[9]; [22]
  Plant response rating, Waterhemp_RES1: 95

## CCc1sc2c(C)cc(C)cc2c1-c1c(O)c(C)nn(C)c1=O [Compound 57]
[1]; [10]
  Oat, Wild plant response rating: 20
[1]; [11]
  Plant response rating, Oat, Wild: 45
[1]; [12]
  Plant response rating, Oat, Wild: 60
[1]; [13]
  Oat, Wild plant response rating: 35
[2]; [10]
  Chickweed plant response rating: 90
[2]; [11]
  Plant response rating, Chickweed: 95
[2]; [12]
  Plant response rating, Chickweed: 100
[2]; [13]
  Chickweed plant response rating: 95
Kochia (Kochia scoparia); [10]
  Kochia plant response rating: 50
Kochia (Kochia scoparia); [11]
  Plant response rating, Kochia: 70
Kochia (Kochia scoparia); [12]
  Plant response rating, Kochia: 95
Kochia (Kochia scoparia); [13]
  Kochia plant response rating: 65
[3]; [14]
  Plant response rating, Blackgrass: 30
[3]
  Blackgrass plant response rating: 60
[4]; [14]
  Plant response rating, Galium: 100
[4]
  Galium plant response rating: 100
[5]; [15]
  Plant response rating, Barnyardgrass: 90
[5]; [16]
  Barnyardgrass plant response rating: 100
[5]; [17]
  Barnyardgrass plant response rating: 100
[5]; [18]
  Plant response rating, Barnyardgrass: 100
Rice (Oryza sativa)
  Plant response rating, Rice: 0
[6]
  Plant response rating, Ducksalad: 0
[7]
  Plant response rating, Barnyardgrass: 0
[8]
  Plant response rating, Sedge, Umbrella: 0
[9]; [19]
  Plant response rating, Waterhemp_RES1: 40
[9]; [20]
  Plant response rating, Waterhemp_RES1: 50
[9]; [21]
  Plant response rating, Waterhemp_RES1: 40
[9]; [22]
  Plant response rating, Waterhemp_RES1: 60
